What all share (assay type): tissue-based
One test deals with Transporter (Rattus norvegicus, UniProt Q63380). Nature of the test: Displacement of [3H]nisoxetine from NAT in Sprague-Dawley rat brain after 4 hrs by liquid scintillation analysis. A general note: Displacement assays read how much labelled ligand stays bound in the presence of the test substance.
Test [1] has as its target Sodium-dependent dopamine transporter (Rattus norvegicus, UniProt P23977). Nature of the test: Displacement of [3H]WIN-35428 from DAT in Sprague-Dawley rat brain after 2 hrs by liquid scintillation analysis.
Test [2] deals with Sodium-dependent serotonin transporter (Rattus norvegicus, UniProt P31652). Briefly: Displacement of [3H]citalopram from SERT in Sprague-Dawley rat brain after 2 hrs by liquid scintillation analysis.
Sequence of Sodium-dependent serotonin transporter (P31652 whole entry): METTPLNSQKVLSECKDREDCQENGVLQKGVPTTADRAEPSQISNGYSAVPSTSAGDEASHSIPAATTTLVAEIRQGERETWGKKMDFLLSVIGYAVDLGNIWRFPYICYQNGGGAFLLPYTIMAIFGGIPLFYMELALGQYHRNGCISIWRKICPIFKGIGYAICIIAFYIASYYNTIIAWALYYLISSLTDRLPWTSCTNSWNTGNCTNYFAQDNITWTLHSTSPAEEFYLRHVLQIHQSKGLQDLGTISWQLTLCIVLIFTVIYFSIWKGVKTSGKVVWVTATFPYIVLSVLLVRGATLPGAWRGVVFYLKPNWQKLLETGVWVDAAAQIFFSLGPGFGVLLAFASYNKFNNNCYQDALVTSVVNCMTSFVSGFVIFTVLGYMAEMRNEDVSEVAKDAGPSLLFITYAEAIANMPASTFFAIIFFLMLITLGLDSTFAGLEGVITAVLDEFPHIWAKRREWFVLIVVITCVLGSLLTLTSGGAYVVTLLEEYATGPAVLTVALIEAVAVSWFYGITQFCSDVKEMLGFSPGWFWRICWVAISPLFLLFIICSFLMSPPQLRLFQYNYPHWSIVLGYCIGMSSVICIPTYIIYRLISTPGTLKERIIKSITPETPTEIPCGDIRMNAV

Sequence of Transporter (Q63380 whole entry): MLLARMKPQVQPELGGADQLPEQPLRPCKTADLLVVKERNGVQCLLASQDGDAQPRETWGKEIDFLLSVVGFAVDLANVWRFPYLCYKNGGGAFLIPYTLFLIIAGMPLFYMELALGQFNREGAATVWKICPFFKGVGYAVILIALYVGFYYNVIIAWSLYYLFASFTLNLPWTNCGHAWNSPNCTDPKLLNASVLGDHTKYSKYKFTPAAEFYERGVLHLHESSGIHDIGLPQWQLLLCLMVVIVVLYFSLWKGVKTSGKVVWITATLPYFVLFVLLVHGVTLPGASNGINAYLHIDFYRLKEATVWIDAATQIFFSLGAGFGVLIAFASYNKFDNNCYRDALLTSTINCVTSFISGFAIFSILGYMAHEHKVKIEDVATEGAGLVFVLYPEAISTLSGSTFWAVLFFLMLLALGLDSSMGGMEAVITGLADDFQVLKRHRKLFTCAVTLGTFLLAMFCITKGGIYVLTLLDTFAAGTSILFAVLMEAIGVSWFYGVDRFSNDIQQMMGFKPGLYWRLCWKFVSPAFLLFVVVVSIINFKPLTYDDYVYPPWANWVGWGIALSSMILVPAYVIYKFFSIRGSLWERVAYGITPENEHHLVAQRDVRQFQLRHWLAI
Sequence of Sodium-dependent dopamine transporter (P23977 whole entry): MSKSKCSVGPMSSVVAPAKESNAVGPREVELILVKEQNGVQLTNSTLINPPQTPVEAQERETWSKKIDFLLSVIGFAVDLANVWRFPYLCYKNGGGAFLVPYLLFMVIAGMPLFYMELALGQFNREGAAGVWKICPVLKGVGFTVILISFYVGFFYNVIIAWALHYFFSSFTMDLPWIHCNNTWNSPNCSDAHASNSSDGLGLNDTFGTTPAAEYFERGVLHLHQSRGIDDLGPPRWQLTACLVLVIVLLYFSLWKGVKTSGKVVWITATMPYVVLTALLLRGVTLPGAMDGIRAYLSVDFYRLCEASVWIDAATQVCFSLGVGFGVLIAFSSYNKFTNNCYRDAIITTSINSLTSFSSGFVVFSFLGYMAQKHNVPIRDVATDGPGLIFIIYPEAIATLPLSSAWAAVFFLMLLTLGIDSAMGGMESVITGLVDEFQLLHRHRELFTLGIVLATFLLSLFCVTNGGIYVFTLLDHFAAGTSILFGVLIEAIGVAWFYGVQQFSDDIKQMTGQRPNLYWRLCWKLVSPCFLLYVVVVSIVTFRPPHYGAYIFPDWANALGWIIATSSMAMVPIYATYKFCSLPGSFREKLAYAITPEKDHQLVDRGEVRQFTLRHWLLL

Take `Ic1ccccc1O[C@@H](c1ccccc1)[C@@H]1CNCCO1`: at Transporter, affinity was put at a Ki of 0.84 nM.
As for `CCOc1ccccc1O[C@@H](c1ccc(I)cc1)[C@H]1CNCCO1`, on Transporter, the Ki – broadly, a dissociation constant, usually derived from enzyme kinetics or from competition with a known ligand – came out at 58.2 nM.
In turn, `CCOc1ccccc1O[C@@H](c1ccc(I)cc1)[C@@H]1CNCCO1` gave a Ki at Transporter of 53.8 nM.
Consider `Ic1ccccc1O[C@@H](c1ccccc1)[C@H]1CNCCO1`, for which the Ki in test [1] was 526 nM; in test [2], 51.5 nM; on Transporter, 8.4 nM.
As for `Ic1cccc(O[C@@H](c2ccccc2)[C@H]2CNCCO2)c1`, the Ki in test [1] worked out at 1900 nM; in test [2] it was 154 nM; at Transporter, 1700 nM.
The corresponding values for `Ic1ccc(O[C@@H](c2ccccc2)[C@H]2CNCCO2)cc1` are 2100 nM, 34.5 nM and 1100 nM.
